Data on 28 molecules can be found in US20240400561A1, “NOVEL SUBSTITUTED SULFONYLUREA COMPOUNDS AS INHIBITORS OF INTERLEUKIN-1 ACTIVITY” (Viva Star Biosciences (Suzhou) Co., Ltd., priority 2021, published 2024).

Some results are limits rather than exact numbers.

T1 sequence (Q96P20 whole entry): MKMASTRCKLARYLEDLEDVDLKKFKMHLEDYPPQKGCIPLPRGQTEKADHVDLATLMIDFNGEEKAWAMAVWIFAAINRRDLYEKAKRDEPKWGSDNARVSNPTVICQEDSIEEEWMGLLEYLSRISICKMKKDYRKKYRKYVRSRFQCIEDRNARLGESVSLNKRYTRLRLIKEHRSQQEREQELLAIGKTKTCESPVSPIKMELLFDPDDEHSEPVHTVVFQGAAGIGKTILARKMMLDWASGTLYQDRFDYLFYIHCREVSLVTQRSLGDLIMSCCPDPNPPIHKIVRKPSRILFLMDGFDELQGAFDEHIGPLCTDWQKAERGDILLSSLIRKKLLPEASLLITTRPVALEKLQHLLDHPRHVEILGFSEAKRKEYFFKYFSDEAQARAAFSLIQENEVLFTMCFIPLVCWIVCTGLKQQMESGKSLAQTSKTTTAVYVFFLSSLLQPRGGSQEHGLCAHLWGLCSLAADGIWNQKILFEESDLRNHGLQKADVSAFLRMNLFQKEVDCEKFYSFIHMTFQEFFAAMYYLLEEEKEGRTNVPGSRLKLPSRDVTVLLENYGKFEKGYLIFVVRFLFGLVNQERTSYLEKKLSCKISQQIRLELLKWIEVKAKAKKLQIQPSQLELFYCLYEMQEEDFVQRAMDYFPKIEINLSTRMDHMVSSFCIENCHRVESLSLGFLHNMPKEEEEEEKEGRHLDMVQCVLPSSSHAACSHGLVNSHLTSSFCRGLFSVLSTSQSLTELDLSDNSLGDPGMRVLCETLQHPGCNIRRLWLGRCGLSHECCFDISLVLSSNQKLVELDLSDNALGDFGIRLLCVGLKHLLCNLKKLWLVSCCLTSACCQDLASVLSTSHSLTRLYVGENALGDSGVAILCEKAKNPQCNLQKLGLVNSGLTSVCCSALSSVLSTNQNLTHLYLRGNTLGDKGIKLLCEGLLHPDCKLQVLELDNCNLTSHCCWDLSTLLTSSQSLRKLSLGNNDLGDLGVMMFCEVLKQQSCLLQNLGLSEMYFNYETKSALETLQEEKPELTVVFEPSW

This experiment has as its target T1, NLRP3 (Homo sapiens, UniProt Q96P20).
T1 construct: Seed THP-1 cells (5.56*10^5 cells/mL) containing 1.0 ug/mL LPS; endogenous in cells; host or cells: THP-1 cells
The experiment in a line: THP-1 cell assay (LPS priming, nigericin), IL1β release by HTRF; called pyroptosis assay, THP IC50. Format: cell-based. The note with it: NLRP3 inhibitory activity; THP-1 cells, 1.0 ug/mL LPS, compound 3 hrs, nigericin 5 uM 1 hr, IL1β in supernatant. The method, boiled down: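 THP-1 cells were primed with 1.0 ug/mL LPS in serum-free RPMI 1640 alongside compound (10 doses from 5 uM, 1:3) for 3 h at 37° C. Nigericin (final 5 uM) was then added for 1 h. Supernatant IL1β was quantified by HTRF against a standard curve, with IC50 from a four-parameter fit.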
On the technique in general: Time-resolved FRET reads energy transfer from a long-lived donor to a nearby acceptor.
For `Cc1cc2cc(-c3c(C)cc4c(c3NC(=O)NS(=O)(=O)c3ccn(C5CC5)n3)CCC4)ccn2n1` [Example 88, 1-cyclopropyl-N-((6-methyl-5-(2-methylpyrazolo[1,5-a]pyridin-5-yl)-2,3-dihydro-1H-inden-4-yl)carbamoyl)-1H-pyrazole-3-sulfonamide], the IC50 was no more than 30 nM. In the case of `CC(C)(O)c1csc(S(=O)(=O)NC(=O)Nc2c(-c3ccnc4c3ccn4C3CC3)ccc3c2CCC3)c1` [Example 49, N-((5-(1-cyclopropyl-1H-pyrrolo[2,3-b]pyridin-4-yl)-2,3-dihydro-1H-inden-4-yl)carbamoyl)-4-(2-hydroxypropan-2-yl)thiophene-2-sulfonamide] it was 30 to 300 nM. Turning to `CC(C)(O)c1csc(S(=O)(=O)NC(=O)Nc2c(-c3ccn4ccnc4c3)ccc3c2OCO3)c1` [Example 66, 4-(2-hydroxypropan-2-yl)-N-((5-(imidazo[1,2-a]pyridin-7-yl)benzo[d][1,3]dioxol-4-yl)carbamoyl)thiophene-2-sulfonamide], the IC50 is no more than 30 nM. The molecule `CC(C)(O)c1csc(S(=O)(=O)NC(=O)Nc2c3c(cc(Cl)c2-c2ccn4cncc4c2)CCC3)c1` [Example 71, N-((6-chloro-5-(imidazo[1,5-a]pyridin-7-yl)-2,3-dihydro-1H-inden-4-yl)carbamoyl)-4-(2-hydroxypropan-2-yl)thiophene-2-sulfonamide] returned an IC50 of no more than 30 nM. Molecule `O=C(Nc1c2c(cc(Cl)c1-c1ccn3nccc3c1)CCC2)NS(=O)(=O)c1ccn(C2CC2)n1` [Example 89, N-((6-chloro-5-(pyrazolo[1,5-a]pyridin-5-yl)-2,3-dihydro-1H-inden-4-yl)carbamoyl)-1-cyclopropyl-1H-pyrazole-3-sulfonamide] came in with a 50% inhibitory concentration (IC50) of no more than 30 nM. As to `CC(C)n1ccc(S(=O)(=O)NC(=O)Nc2c(-c3ccnc4c3ccn4C)ccc3c2CCC3)n1` [Example 50, 1-isopropyl-N-((5-(1-methyl-1H-pyrrolo[2,3-b]pyridin-4-yl)-2,3-dihydro-1H-inden-4-yl)carbamoyl)-1H-pyrazole-3-sulfonamide], the IC50 is 300 to 1000 nM. In the case of `Cc1cc2c(c(NC(=O)NS(=O)(=O)c3cc(C(O)C4CC4)n(C)n3)c1-c1ccn3nccc3c1)CCC2` (stereo not shown) [Example 16, 5-(cyclopropyl(hydroxy)methyl)-1-methyl-N-((6-methyl-5-(pyrazolo[1,5-a]pyridin-5-yl)-2,3-dihydro-1H-inden-4-yl)carbamoyl)-1H-pyrazole-3-sulfonamide] it was no more than 30 nM; in that of `Cc1cc2c(c(NC(=O)NS(=O)(=O)c3cc(CN(C)C)n(C4CC4)n3)c1-c1ccn3nccc3c1)CCC2` [Example 77, 1-cyclopropyl-5-((dimethylamino)methyl)-N-((6-methyl-5-(pyrazolo[1,5-a]pyridin-5-yl)-2,3-dihydro-1H-inden-4-yl)carbamoyl)-1H-pyrazole-3-sulfonamide], 30 to 300 nM; in that of `Cc1cc2c(c(NC(=O)NS(=O)(=O)c3ccn(C4CC4)n3)c1-c1ccc3ccnn3c1)CCC2` [Example 92, 1-cyclopropyl-N-((6-methyl-5-(pyrazolo[1,5-a]pyridin-6-yl)-2,3-dihydro-1H-inden-4-yl)carbamoyl)-1H-pyrazole-3-sulfonamide], 30 to 300 nM. `Cc1cc2c(c(NC(=O)NS(=O)(=O)c3ccn(C[C@@H]4CCO4)n3)c1-c1ccn3nccc3c1)CCC2` [Example 91, (S)—N-((6-methyl-5-(pyrazolo[1,5-a]pyridin-5-yl)-2,3-dihydro-1H-inden-4-yl)carbamoyl)-1-(oxetan-2-ylmethyl)-1H-pyrazole-3-sulfonamide] came in with an IC50 of no more than 30 nM. The molecule `Cc1cc2c(c(NC(=O)NS(=O)(=O)c3cncc(NC4CC4)c3)c1-c1ccn3nccc3c1)CCC2` [Example 37, 5-(cyclopropylamino)-N-((6-methyl-5-(pyrazolo[1,5-a]pyridin-5-yl)-2,3-dihydro-1H-inden-4-yl)carbamoyl)pyridine-3-sulfonamide] displayed an IC50 of no more than 30 nM.

With `CC(C)(O)c1csc(S(=O)(=O)NC(=O)Nc2c3c(cc(C#N)c2-c2ccn4cncc4c2)CCC3)c1` [Example 2, N-((6-cyano-5-(imidazo[1,5-a]pyridin-7-yl)-2,3-dihydro-1H-inden-4-yl)carbamoyl)-4-(2-hydroxypropan-2-yl)thiophene-2-sulfonamide], the IC50 was no more than 30 nM. The same measure for `N#Cc1cc2c(c(NC(=O)NS(=O)(=O)c3cnn(CC4CC4)c3)c1-c1ccn3cncc3c1)CCC2` [Example 13, N-((6-cyano-5-(imidazo[1,5-a]pyridin-7-yl)-2,3-dihydro-1H-inden-4-yl)carbamoyl)-1-(cyclopropylmethyl)-1H-pyrazole-4-sulfonamide]: no more than 30 nM. The molecule `CC(C)(O)c1csc(S(=O)(=O)NC(=O)Nc2c(-c3cnc4ccnn4c3)ccc3c2CCC3)c1` [Example 64, 4-(2-hydroxypropan-2-yl)-N-((5-(pyrazolo[1,5-a]pyrimidin-6-yl)-2,3-dihydro-1H-inden-4-yl)carbamoyl)thiophene-2-sulfonamide] came in with an IC50 of 1000 to 2000 nM. In the case of `CO[C@@H](C)Cn1ccc(S(=O)(=O)NC(=O)Nc2c3c(cc(C)c2-c2ccn4nccc4c2)CCC3)n1` [Example 26, (S)-1-(2-methoxypropyl)-N-((6-methyl-5-(pyrazolo[1,5-a]pyridin-5-yl)-2,3-dihydro-1H-inden-4-yl)carbamoyl)-1H-pyrazole-3-sulfonamide] it was no more than 30 nM; in that of `Cn1ccc2cc(-c3ccc4c(c3NC(=O)NS(=O)(=O)c3cc(C(C)(C)O)cs3)CCC4)cnc21` [Example 44, 4-(2-hydroxypropan-2-yl)—N-((5-(1-methyl-1H-pyrrolo[2,3-b]pyridin-5-yl)-2,3-dihydro-1H-inden-4-yl)carbamoyl)thiophene-2-sulfonamide], 30 to 300 nM. Consider `Cc1cc2c(c(NC(=O)NS(=O)(=O)c3cnn(CC4CC4)c3)c1-c1ccn3nccc3c1)CCC2` [Example 6, 1-(cyclopropylmethyl)-N-((6-methyl-5-(pyrazolo[1,5-a]pyridin-5-yl)-2,3-dihydro-1H-inden-4-yl)carbamoyl)-1H-pyrazole-4-sulfonamide], for which the concentration for half-maximal inhibition (IC50) is no more than 30 nM. Molecule `Cc1cc2c(c(NC(=O)NS(=O)(=O)c3cncc(OC4CCC4)c3)c1-c1ccn3nccc3c1)CCC2` [Example 35, 5-cyclobutoxy-N-((6-methyl-5-(pyrazolo[1,5-a]pyridin-5-yl)-2,3-dihydro-1H-inden-4-yl)carbamoyl)pyridine-3-sulfonamide] came in with an IC50 of no more than 30 nM. In the case of `Cc1cc2c(c(NC(=O)NS(=O)(=O)c3cncc(N(C)C4CC4)c3)c1-c1ccn3nccc3c1)CCC2` [Example 29, 5-(cyclopropyl(methyl)amino)-N-((6-methyl-5-(pyrazolo[1,5-a]pyridin-5-yl)-2,3-dihydro-1H-inden-4-yl)carbamoyl)pyridine-3-sulfonamide] it was 30 to 300 nM. For the molecule `CC(C)(O)c1csc(S(=O)(=O)NC(=O)Nc2c(-c3ccc4ccnn4c3)ccc3c2CCC3)c1` [Example 68, 4-(2-hydroxypropan-2-yl)-N-((5-(pyrazolo[1,5-a]pyridin-6-yl)-2,3-dihydro-1H-inden-4-yl)carbamoyl)thiophene-2-sulfonamide], the IC50 is no more than 30 nM. `Cc1c(-c2ccc3c(c2NC(=O)NS(=O)(=O)c2cc(C(C)(C)O)cs2)CCC3)ccn2cncc12` [Example 73, 4-(2-hydroxypropan-2-yl)-N-((5-(8-methylimidazo[1,5-a]pyridin-7-yl)-2,3-dihydro-1H-inden-4-yl)carbamoyl)thiophene-2-sulfonamide] came in with an IC50 of 30 to 300 nM.

`Cc1cc2c(c(NC(=O)NS(=O)(=O)c3cnn(CC4CC4)c3)c1-c1ccc3nccn3c1)CCC2` [Example 19, 1-(cyclopropylmethyl)-N-((5-(imidazo[1,2-a]pyridin-6-yl)-6-methyl-2,3-dihydro-1H-inden-4-yl)carbamoyl)-1H-pyrazole-4-sulfonamide] displayed an IC50 of no more than 30 nM. With `O=C(Nc1c(-c2ccn3nccc3c2)ccc2c1CCC2)NS(=O)(=O)c1cncc(NC2CC2)c1` [Example 31, 5-(cyclopropylamino)-N-((5-(pyrazolo[1,5-a]pyridin-5-yl)-2,3-dihydro-1H-inden-4-yl)carbamoyl)pyridine-3-sulfonamide], the IC50 was no more than 30 nM.

`Cc1cc2c(c(NC(=O)NS(=O)(=O)c3ccn(C4CC4)n3)c1-c1ccn3cnnc3c1)CCC2` [Example 93, N-((5-([1,2,4]triazolo[4,3-a]pyridin-7-yl)-6-methyl-2,3-dihydro-1H-inden-4-yl)carbamoyl)-1-cyclopropyl-pyrazole-3-sulfonamide] yielded an IC50 of no more than 30 nM.

Consider `Cc1cc2c(c(NC(=O)NS(=O)(=O)c3ccn(C[C@H](C)O)n3)c1-c1ccn3nccc3c1)CCC2` [Example 80, (S)-1-(2-hydroxypropyl)-N-((6-methyl-5-(pyrazolo[1,5-a]pyridin-5-yl)-2,3-dihydro-1H-inden-4-yl)carbamoyl)-1H-pyrazole-3-sulfonamide], for which the IC50 is no more than 30 nM. In the case of `Cc1cc2cc(-c3ccc4c(c3NC(=O)NS(=O)(=O)c3cc(C(C)(C)O)cs3)CCC4)ccn2n1` [Example 74, 4-(2-hydroxypropan-2-yl)-N-((5-(2-methylpyrazolo[1,5-a]pyridin-5-yl)-2,3-dihydro-1H-inden-4-yl)carbamoyl)thiophene-2-sulfonamide] it was no more than 30 nM.

Molecule `O=C(Nc1c2c(cc(Cl)c1-c1ccn3cnnc3c1)CCC2)NS(=O)(=O)c1ccn(C2CC2)n1` [Example 96, N-((5-([1,2,4]triazolo[4,3-a]pyridin-7-yl)-6-chloro-2,3-dihydro-1H-inden-4-yl)carbamoyl)-1-cyclopropyl-1H-pyrazole-3-sulfonamide] registered an IC50 of no more than 30 nM. Consider `CC(C)(O)c1csc(S(=O)(=O)NC(=O)Nc2c(-c3cnc4[nH]ccc4c3)ccc3c2CCC3)c1` [Example 46, N-((5-(1H-pyrrolo[2,3-b]pyridin-5-yl)-2,3-dihydro-1H-inden-4-yl)carbamoyl)-4-(2-hydroxypropan-2-yl)thiophene-2-sulfonamide], for which the concentration for half-maximal inhibition (IC50) is 30 to 300 nM.

As usually defined, the IC50 is the midpoint of a concentration-inhibition curve. A high value points to lower potency.
